Patent US4110321A, “Synthetic tridecapeptide [Gln^4 ]-neurotensin having hormonal activity” (priority 1977, dated 1978)
Where no end group is shown, it is not given here.

Legend:
anesthetized dogs = experiment: Heart, blood flow, blood glucose and lipolysis in anesthetized dogs; assay type: in vivo, dog
From the text: [Gln^4 ]-neurotensin ([Gln]^4 -NT) has also been studied on the heart and on the blood from in subcutaneous adipose tissue, skin, and small intestine in anesthetized dogs. In addition, its possible action has been investigated on blood glucose concentration and lypolysis in subcutaneous adipose tissue.

rats [1] = experiment: Hypotensive Assay; assay type: in vivo, rat; conditions: rats anesthetized with pentobarbital; 50 picomoles/100 g body weight via tail vein
Protocol: Systemic blood pressure was measured with a Hewlett-Packard recorder and pressure transducer (preamplifier 8805 B, recorder 7782 A, transducer 267 BC) following cannulations of the carotid artery in rats weighing 200-250 g and anesthetized with pentobarbital (50 mg/kg). The test samples were dissolved in 0.85% saline and administered via a tail vein.

rats [2] = experiment: Hyperglycemic Assay; assay type: in vivo, rat; conditions: 15 minutes after injection
Protocol: Rats weighing 100-125 g were anesthetized with pentobarbital (50 mg/kg). The test samples were dissolved in 0.85% saline and administered via a tail vein. Each animal was killed by decapitation 15 minutes after injection and plasma glucose levels were measured by the method of Ceriotti and Frank. […] The plasma glucose values are given in mg %.

guinea pig ileum = experiment: Contraction of Guinea Pig Ileum; conditions: ileum segments in Tyrode's solution at 37°
Protocol: Freshly dissected segments of guinea pig ileum were suspended in a 40 ml bath which was maintained at 37° and serated with a mixture of O2 --CO2 (95:5), and containing Tyrode's solution.

rabbit anti-NT serum = experiment: Radioimmunoassay; assay type: binding; conditions: I^125 -NT, two rabbit antisera, pH 7.4, 4° C.
Protocol: Two antisera were used in these assays. One has been characterized as being directed solely toward the COOH-terminus, and the other requires most of the molecule.
The radioimmunoassay method used was an equilibrium system carried out at pH 7.4 in 10 × 75 mm disposable flint glass tubes and employing PBS-gel as diluent. […] The mixtures were allowed to stand at 4° C. for 18-24 hours. The "bound" (B) and "free" (F) trace were separated at 4° C. by the rapid addition of 1.0 ml of a 1:4 dilution of a stock suspension of charcoal (2.5%) and dextran T-70 (0.25%) in PBS to each tube. The tubes were immediately centrifuged for 20 min at 2000 rpm (PRJ-Universal), and the supernatant fluids were decanted into new tubes. […] "Damage" was usually 2-4% and using antisera at a final dilution of 1:10,000 gave 50-70% binding. All unknowns were assayed in duplicate at three dilutions so as to span the sensitive portion of the curve. The results were obtained by averaging the concentrations determined at each dilution provided that they agreed within 20%.

[3] = system: canine fundic, antral and intestinal pouches; experiment: Spontaneous motor activity in isolated canine fundic, antral and intestinal pouches; assay type: in vivo, dog; conditions: intravenous infusion for 30 min
Protocol: The action of [Gln^4 ]-neurotensin was tested on the spontaneous motor activity in isolated canine fundic, antral and intestinal pouches. All of these pouches had been prepared more than 6 months prior to the testing. […] The gastro-intestinal tract appears to be the principal target organ for [Gln^4 ]-neurotensin, and is a basis for clinical use of [Gln^4 ]-neurotensin in patients having diseases of gastroenterology (S. Andersson, M.D. S. Rosell M.D., U. Hjelmquist M.D., D. Chang Ph.D. and K. Folkers Ph.D., Gastroenterology, in press).

[4] = Simulation of isolation steps: stability in acetone 1 N HCl at 37° C.; assay type: physicochemical
Protocol: Toward simulation of these isolation steps, both in terms of temperature and the concentration of hydrochloric acid, 2 mg of synthetic [Gln^4 ]-neurotensin was dissolved in a mixture of acetone 1 N HCl (100:3 v/v), and this solution was maintained at 37° C. for 12 hours which can be presumed to be less than the time of the original large scale operation at the New England Enzyme Center in Boston. An aliquot of the solution was taken for thin layer electrophoresis on cellulose plates (160 microns, Eastman Chromatographic sheet) at 500 volts in pyridine-acetate buffer, pH 6.5. The major spot on the plate corresponded to [Gln^4 ]-neurotensin.However, a new and minor spot moving toward the cathode was present which had the same TLC retention time as neurotensin. The solution was allowed to stand overnight, and it was then maintained again at 37° for a second 12-hr period. […] The minor spot had increased during the second 12-hr period. The remaining solution was concentrated under reduced pressure at room temperature to remove acetone, and the aqueous residue was then lyophilized. The residual white powder was subjected to thin layer electrophoresis on cellulose plates and pyridine acetate buffer at pH 6.5 and at 500 volts. […] The Rf values were identical with those of an authentic specimen of [Gln^4 ]-neurotensin as follows: Rf^1 0.25; Rf^2 0.89; Rf^3 0.50; Rf^4 0.42; Rf^5 0.21; and Rf^6 0.98.
In the second experiment 10 mg of pure [Gln^4 ]-neurotensin was dissolved in a mixture of acetone 1 N HCl (100:3 v/v), and the solution was maintained at 37° C. for 27 hours to simulate again the steps of isolation which are being critiqued. This time, 3 spots were observed on electrophoretic analysis of an aliquot of the solution which had been maintained at 37° for 27 hrs. Preparative thin layer electrophoresis, extraction, and workup yielded 4.2 mg of recovered [Gln^4 ]-neurotensin and 4.3 mg of neurotensin. The third and much weaker spot was due to only a trace amount of another peptide which presumably resulted from further hydrolysis. […] The fact that in these two experiments, not all of the [Gln^4 ]-neurotensin was converted to neurotensin is relatively unimportant, because these experiments on hydrolysis of the pure [Gln^4 ]-neurotensin only simulates the conditions of processing of 20-45 kg of hypothalamic tissue.

[5] = 10 mg in acetone 1 N HCl (100:3 v/v), 27 hours

Row | Molecule | action in the peripheral vasculature (anesthetized dogs; anesthetized dogs) | -ΔSystemic Blood Pressure (rats [1]) [mm HG] | Hyperglycemic Assay, plasma glucose (rats [2]; 25 picomoles/100 g body weight via tail vein) [mg %] | Hyperglycemic Assay, plasma glucose (rats [2]; 50 picomoles/100 g body weight via tail vein) [mg %] | Hyperglycemic Assay, plasma glucose (rats [2]; 100 picomoles/100 g body weight via tail vein) [mg %] | Contraction of Guinea Pig Ileum, potency (guinea pig ileum) | % Cross Ractivity (Ab #4, #6) (rabbit anti-NT serum) | blood glucose concentration (anesthetized dogs; anesthetized dogs) | cardiac action (anesthetized dogs; anesthetized dogs) | action in the peripheral vasculature (anesthetized dogs; anesthetized dogs, listed as [Gln]^4 -NT) | lipid metabolism in adipose tissue (anesthetized dogs; subcutaneous adipose tissue) | dose inducing significant motor inhibition, vagally innervated antral pouches [3] [ng/kg/min] | dose inhibiting motor activity, vagally denervated fundic pouches [3] | recovered [Gln^4 ]-neurotensin ([4]; 2 mg in acetone 1 N HCl (100:3 v/v), two 12-hr periods) | neurotensin formed [4, 5] [mg] | recovered [Gln^4 ]-neurotensin [4, 5] [mg] | stability under the isolation conditions ([4]; acetone 1 N HCl (100:3 v/v))
1 | Substance P (RPKPQQFFGLM-NH2; UniProt P20366 58-68, looked up) [another polypeptide extracted from the hypothalamus, reference compound] | hypotension and pronounced vasodilation and no vasoconstrictor or metabolic actions | – | – | – | – | – | – | – | – | – | – | – | – | – | – | – | –
2 | CC[C@H](C)[C@H](NC(=O)[C@H](Cc1ccc(O)cc1)NC(=O)[C@@H]1CCCN1C(=O)[C@H](CCCNC(=N)N)NC(=O)[C@H](CCCNC(=N)N)NC(=O)[C@@H]1CCCN1C(=O)[C@H](CCCCN)NC(=O)[C@H](CC(N)=O)NC(=O)[C@H](CCC(N)=O)NC(=O)[C@H](Cc1ccc(O)cc1)NC(=O)[C@H](CC(C)C)NC(=O)[C@@H]1CCC(=O)N1)C(=O)N[C@@H](CC(C)C)C(=O)O [[Gln^4]-NT] | delayed vasoconstriction which is prominent is subcutaneous adipose tissue | 42 ± 8 | 15±5 | 34±4 | 116 | about equivalent potency | 90-100% | increased blood glucose concentration | no cardiac action | both vasodilator and vasoconstrictor actions | no evidence of a change in lipid metabolism in adipose tissue | 6.3 | above 25 ng × kg^-1 × min^-1 | About 1 mg | 4.3 | 4.2 | hydrolyzed or converted to neurotensin
